In ChEMBL document CHEMBL1743201, “Casarett and Doull's Toxicology The Basic Science of Poisons, 7th edition” (2008):

Experiments:
Format in all cases: ADME
[1] = target: T1, Glutathione S-transferase Mu 1 (Homo sapiens, UniProt P09488); assay: Substrates for human cytosolic glutathione transferase GSTM1
T1 sequence (P09488 whole entry): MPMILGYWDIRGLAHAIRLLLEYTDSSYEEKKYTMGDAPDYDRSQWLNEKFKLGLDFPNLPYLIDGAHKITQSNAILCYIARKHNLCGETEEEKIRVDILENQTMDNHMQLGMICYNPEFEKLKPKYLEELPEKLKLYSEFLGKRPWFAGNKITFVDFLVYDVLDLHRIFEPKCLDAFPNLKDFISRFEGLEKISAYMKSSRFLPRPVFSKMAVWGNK

[2] = target: T2, Glutathione S-transferase Mu 2 (Homo sapiens, UniProt P28161); assay: Substrates for human cytosolic glutathione transferase GSTM2
T2 sequence (P28161 whole entry): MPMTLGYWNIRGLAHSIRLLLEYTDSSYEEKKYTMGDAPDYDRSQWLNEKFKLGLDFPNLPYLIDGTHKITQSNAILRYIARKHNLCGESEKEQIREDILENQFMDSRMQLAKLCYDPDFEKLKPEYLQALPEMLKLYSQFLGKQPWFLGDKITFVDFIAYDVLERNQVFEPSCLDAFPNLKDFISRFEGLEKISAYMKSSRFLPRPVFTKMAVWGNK

[3] = target: Glutathione S-transferase P (Homo sapiens, UniProt P09211); assay: Substrates for human cytosolic glutathione transferase GSTP1
[4] = target: T3, UDP-glucuronosyltransferase 2B15 (Homo sapiens, UniProt P54855); assay: Substrate of human UDP-glucuronosyltransferase UGT2B15
T3 sequence (P54855 whole entry): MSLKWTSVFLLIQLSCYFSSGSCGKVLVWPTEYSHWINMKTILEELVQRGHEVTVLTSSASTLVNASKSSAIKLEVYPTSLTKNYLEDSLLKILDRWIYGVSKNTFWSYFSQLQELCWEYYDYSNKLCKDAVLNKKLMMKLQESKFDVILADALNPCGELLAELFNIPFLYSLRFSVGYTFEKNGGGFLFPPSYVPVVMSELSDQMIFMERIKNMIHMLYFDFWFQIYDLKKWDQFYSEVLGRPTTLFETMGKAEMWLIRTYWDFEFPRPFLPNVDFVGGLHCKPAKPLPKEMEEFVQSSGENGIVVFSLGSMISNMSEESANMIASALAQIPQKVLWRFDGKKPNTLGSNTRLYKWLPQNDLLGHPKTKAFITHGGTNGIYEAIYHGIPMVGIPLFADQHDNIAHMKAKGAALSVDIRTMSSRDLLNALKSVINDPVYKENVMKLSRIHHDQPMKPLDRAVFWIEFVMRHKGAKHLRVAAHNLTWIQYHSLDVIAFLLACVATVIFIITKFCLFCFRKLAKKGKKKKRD

[5] = target: T4, Cytochrome P450 2C9 (Homo sapiens, UniProt P11712); assay: Clinically relevant substrates of human liver microsomal P450 enzymes, isoform CYP2C9; details: microsomes
[6] = target: T5, Glutathione S-transferase theta-1 (Homo sapiens, UniProt P30711); assay: Substrates for human cytosolic glutathione transferase GSTT1
T5 sequence (P30711 whole entry): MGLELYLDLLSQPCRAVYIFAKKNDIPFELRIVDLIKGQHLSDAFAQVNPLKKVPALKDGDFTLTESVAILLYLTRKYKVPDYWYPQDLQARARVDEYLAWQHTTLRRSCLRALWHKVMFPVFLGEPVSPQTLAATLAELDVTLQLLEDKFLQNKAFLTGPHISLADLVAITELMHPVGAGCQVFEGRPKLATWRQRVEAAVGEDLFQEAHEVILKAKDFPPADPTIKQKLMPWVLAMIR

[7] = target: T6, Glutathione S-transferase A1 (Homo sapiens, UniProt P08263); assay: Substrates for human cytosolic glutathione transferase GSTA1
T6 sequence (P08263 whole entry): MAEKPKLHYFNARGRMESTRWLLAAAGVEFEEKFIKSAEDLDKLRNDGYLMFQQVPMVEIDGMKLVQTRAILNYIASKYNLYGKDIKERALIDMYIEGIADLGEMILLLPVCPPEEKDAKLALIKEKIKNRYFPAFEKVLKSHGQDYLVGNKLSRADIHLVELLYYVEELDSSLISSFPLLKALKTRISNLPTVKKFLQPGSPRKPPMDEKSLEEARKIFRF

[8] = target: T7, UDP-glucuronosyltransferase 2B7 (Homo sapiens, UniProt P16662); assay: Substrate of human UDP-glucuronosyltransferase UGT2B7
T7 sequence (P16662 whole entry): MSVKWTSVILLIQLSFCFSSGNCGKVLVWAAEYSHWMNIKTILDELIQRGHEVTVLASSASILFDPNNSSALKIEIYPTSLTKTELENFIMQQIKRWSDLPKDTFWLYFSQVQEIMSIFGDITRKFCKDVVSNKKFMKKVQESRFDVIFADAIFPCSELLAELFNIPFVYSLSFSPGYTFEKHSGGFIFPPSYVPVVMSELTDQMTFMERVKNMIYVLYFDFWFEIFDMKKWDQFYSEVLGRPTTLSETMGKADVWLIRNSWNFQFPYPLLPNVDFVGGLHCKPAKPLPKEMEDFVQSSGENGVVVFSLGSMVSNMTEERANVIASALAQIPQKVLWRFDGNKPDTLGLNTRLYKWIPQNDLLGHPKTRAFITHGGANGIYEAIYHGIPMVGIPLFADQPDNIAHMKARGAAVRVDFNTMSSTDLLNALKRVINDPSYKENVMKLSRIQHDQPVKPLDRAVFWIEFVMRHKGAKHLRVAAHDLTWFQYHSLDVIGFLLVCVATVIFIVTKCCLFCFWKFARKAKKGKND

[9] = target: T8, UDP-glucuronosyltransferase 1A9 (Homo sapiens, UniProt O60656); assay: Substrate of human UDP-glucuronosyltransferase UGT1A9
T8 sequence (O60656 whole entry): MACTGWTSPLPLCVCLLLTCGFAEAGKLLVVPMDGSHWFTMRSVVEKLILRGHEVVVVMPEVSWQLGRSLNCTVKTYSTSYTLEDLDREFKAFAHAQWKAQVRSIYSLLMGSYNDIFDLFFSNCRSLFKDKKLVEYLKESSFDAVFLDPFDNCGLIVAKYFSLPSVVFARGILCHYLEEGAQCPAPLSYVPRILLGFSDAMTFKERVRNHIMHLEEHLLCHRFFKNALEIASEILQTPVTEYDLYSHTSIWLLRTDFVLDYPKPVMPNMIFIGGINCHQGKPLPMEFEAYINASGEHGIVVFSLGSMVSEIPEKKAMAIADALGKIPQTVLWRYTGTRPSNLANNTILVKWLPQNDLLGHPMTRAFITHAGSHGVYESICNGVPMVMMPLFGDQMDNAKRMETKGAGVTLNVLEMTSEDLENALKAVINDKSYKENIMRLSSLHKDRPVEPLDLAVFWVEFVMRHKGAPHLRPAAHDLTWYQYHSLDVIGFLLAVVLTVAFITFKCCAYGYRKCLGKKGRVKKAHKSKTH

[10] = target: T9, UDP-glucuronosyltransferase 1A6 (Homo sapiens, UniProt P19224); assay: Substrate of human UDP-glucuronosyltransferase UGT1A6
T9 sequence (P19224 whole entry): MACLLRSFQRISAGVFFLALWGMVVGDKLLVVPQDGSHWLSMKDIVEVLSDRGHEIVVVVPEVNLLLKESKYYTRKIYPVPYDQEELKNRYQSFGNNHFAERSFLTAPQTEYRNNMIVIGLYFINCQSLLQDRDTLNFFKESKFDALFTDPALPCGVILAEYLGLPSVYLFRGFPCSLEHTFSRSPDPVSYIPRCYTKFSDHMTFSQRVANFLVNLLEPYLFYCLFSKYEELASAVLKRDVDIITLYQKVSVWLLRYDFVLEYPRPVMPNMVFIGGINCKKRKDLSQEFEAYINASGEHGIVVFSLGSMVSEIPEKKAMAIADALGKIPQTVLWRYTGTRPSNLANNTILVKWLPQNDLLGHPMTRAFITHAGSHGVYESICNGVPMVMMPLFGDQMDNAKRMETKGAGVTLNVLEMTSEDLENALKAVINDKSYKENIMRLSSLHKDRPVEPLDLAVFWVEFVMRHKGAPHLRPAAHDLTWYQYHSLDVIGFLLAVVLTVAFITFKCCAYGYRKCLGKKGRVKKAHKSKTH

[11] = target: T10, UDP-glucuronosyltransferase 1A8 (Homo sapiens, UniProt Q9HAW9); assay: Substrate of human UDP-glucuronosyltransferase UGT1A8
T10 sequence (Q9HAW9 whole entry): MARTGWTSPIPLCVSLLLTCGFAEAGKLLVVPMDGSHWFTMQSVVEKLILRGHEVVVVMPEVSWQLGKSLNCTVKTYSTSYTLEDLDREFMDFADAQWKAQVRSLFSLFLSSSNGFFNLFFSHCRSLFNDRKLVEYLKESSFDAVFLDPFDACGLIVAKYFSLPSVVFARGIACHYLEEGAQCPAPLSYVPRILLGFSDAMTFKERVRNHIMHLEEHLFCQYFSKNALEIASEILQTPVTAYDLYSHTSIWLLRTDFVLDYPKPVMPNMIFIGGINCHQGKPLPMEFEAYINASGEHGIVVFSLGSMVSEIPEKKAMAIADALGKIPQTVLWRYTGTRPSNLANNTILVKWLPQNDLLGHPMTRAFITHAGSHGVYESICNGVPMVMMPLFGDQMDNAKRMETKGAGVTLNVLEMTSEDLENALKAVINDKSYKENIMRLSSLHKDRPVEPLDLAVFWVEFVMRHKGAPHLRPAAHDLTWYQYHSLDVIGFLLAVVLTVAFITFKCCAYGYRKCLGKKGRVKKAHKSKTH

[12] = target: T4, Cytochrome P450 2C9; assay: Clinically relevant inhibitors of human liver microsomal P450 enzymes, isoform CYP2C9; details: microsomes
[13] = target: Cytochrome P450 2C19 (Homo sapiens, UniProt P33261); assay: Clinically relevant substrates of human liver microsomal P450 enzymes, isoform CYP2C19; details: microsomes
[14] = target: T11, Cytochrome P450 1A2 (Homo sapiens, UniProt P05177); assay: Clinically relevant inhibitors of human liver microsomal P450 enzymes, isoform CYP1A2; details: microsomes
T11 sequence (P05177 whole entry): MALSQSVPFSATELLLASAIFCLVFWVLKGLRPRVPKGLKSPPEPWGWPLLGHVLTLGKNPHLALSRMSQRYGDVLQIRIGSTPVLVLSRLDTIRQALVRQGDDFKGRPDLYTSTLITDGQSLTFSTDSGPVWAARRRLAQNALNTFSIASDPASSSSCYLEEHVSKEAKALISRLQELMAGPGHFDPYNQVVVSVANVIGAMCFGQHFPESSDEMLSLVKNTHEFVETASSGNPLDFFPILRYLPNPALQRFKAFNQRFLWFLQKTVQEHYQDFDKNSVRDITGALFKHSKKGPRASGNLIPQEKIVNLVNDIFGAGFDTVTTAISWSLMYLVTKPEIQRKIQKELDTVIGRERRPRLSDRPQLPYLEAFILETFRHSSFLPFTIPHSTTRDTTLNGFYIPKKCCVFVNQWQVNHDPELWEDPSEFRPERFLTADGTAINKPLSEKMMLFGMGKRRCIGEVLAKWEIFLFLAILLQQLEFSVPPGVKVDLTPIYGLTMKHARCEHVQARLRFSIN

[15] = target: Cytochrome P450 2D6 (Homo sapiens, UniProt P10635); assay: Clinically relevant inhibitors of human liver microsomal P450 enzymes, isoform CYP2D6; details: microsomes
Chain of Cytochrome P450 2D6 (P10635 whole entry, canonical isoform): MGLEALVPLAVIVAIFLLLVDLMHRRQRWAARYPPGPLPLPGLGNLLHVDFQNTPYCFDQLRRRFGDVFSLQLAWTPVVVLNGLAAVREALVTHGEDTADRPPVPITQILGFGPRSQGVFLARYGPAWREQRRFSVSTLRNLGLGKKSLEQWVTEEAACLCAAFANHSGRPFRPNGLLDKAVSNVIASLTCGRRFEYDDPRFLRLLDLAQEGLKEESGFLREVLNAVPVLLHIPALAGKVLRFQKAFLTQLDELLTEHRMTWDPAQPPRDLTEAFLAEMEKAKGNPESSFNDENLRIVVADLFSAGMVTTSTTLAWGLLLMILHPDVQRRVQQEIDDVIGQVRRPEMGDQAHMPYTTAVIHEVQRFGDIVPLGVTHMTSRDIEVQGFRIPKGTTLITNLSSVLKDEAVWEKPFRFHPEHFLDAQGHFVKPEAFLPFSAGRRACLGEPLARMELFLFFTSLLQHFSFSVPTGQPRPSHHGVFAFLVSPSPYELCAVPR

Chain of Cytochrome P450 2C19 (P33261 whole entry, canonical isoform): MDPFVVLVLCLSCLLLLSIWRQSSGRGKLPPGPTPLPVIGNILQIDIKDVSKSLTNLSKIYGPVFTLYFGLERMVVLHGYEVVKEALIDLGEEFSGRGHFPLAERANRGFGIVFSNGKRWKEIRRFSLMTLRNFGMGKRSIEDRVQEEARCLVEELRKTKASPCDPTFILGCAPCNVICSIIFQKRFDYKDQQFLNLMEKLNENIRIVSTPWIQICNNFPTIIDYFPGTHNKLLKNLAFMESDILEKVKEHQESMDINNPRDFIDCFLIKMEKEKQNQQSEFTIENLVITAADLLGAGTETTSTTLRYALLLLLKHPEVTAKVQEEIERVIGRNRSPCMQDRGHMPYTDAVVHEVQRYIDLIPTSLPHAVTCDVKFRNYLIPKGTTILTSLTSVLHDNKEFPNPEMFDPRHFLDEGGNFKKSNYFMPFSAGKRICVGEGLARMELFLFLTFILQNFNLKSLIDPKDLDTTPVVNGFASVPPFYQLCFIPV
T4 sequence (P11712 whole entry, canonical isoform): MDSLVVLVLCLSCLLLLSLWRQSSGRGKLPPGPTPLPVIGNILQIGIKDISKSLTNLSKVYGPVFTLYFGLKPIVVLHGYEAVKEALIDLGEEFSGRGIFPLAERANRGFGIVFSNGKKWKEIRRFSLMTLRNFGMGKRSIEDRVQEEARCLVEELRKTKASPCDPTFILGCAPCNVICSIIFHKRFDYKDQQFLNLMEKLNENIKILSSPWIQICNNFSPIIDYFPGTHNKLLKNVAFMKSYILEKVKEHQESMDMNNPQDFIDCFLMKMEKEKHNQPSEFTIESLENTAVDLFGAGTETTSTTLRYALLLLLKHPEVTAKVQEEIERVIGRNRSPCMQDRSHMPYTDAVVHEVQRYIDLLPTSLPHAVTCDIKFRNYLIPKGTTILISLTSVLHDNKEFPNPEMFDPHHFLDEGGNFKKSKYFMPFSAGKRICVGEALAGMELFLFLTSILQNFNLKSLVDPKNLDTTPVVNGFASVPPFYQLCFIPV
Chain of Glutathione S-transferase P (P09211 whole entry): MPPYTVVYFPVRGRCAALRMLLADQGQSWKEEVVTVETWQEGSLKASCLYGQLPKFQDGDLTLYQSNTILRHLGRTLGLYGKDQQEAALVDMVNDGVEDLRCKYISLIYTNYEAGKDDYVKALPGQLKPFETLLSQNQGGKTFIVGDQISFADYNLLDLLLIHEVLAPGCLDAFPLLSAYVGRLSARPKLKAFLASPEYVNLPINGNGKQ

c1ccc(C2CO2)cc1 (centres undefined)
Activity [1]: Substrate

O=[N+]([O-])c1ccc(Cl)c(Cl)c1
Activity [2]: Substrate

OC1c2ccc3c(ccc4ccccc43)c2C2OC2C1O (centres undefined)
Activity [3]: Substrate | Activity [1]: Substrate

NC(CC1=CC(=O)C(=O)C=C1)C(=O)O (centres undefined)
Activity [2]: Substrate

CCC(=C(c1ccc(O)cc1)c1ccc(OCCN(C)C)cc1)c1ccccc1
Activity [4]: Substrate

CC(=O)C[C@@H](c1ccccc1)c1c(O)c2ccccc2oc1=O
Activity [5]: Substrate

O=[N+]([O-])c1ccc(OCC2CO2)cc1 (centres undefined)
Activity [6]: Substrate

c1ccc([C@H]2O[C@@H]2c2ccccc2)cc1 (relative stereo)
Activity [1]: Substrate

O=C1C=C2CCNC2=CC1=O [AMINOCHROME]
Activity [2]: Substrate

OC1c2cc3ccc4cccc5ccc(c2C2OC2C1O)c3c45 (centres undefined) [BENZO[A]PYRENE DIOL EPOXIDE]
Activity [7]: Substrate | Activity [3]: Substrate | Activity [1]: Substrate

C=CC1CO1 (centres undefined) [BUTADIENE EPOXIDE]
Activity [6]: Substrate

OC1c2c(ccc3cc4c(ccc5ccccc54)cc23)C2OC2C1O (centres undefined) [DIBENZ[A,H]ANTHRACENE DIOL EPOXIDE]
Activity [7]: Substrate | Activity [1]: Substrate

O=C(O)Cc1ccccc1Nc1c(Cl)cccc1Cl [DICLOFENAC]
Activity [5]: Substrate | Activity [8]: Substrate | Activity [9]: Substrate | Activity [4]: Substrate | Activity [10]: Substrate

CCN(CC)C(=O)/C(C#N)=C/c1cc(O)c(O)c([N+](=O)[O-])c1 [ENTACAPONE]
Activity [11]: Substrate | Activity [9]: Substrate | Activity [4]: Substrate

CNCCC(Oc1ccc(C(F)(F)F)cc1)c1ccccc1 (centres undefined) [FLUOXETINE]
Activity [12]: Inhibitor | Activity [5]: Substrate | Activity [13]: Substrate

CC(C(=O)O)c1ccc(-c2ccccc2)c(F)c1 (centres undefined) [FLURBIPROFEN]
Activity [5]: Substrate

COCCCC/C(=N\OCCN)c1ccc(C(F)(F)F)cc1 [FLUVOXAMINE]
Activity [12]: Inhibitor | Activity [14]: Inhibitor

ClCCl [METHYLENE CHLORIDE]
Activity [6]: Substrate

Cc1cccc(C)c1OCC(C)N (centres undefined) [MEXILETINE]
Activity [14]: Inhibitor

COCC(=O)O[C@]1(CCN(C)CCCc2nc3ccccc3[nH]2)CCc2cc(F)ccc2[C@@H]1C(C)C [MIBEFRADIL]
Activity [15]: Inhibitor

O=C(NCCN1CCOCC1)c1ccc(Cl)cc1 [MOCLOBEMIDE]
Activity [13]: Substrate

CCn1cc(C(=O)O)c(=O)c2cc(F)c(N3CCNCC3)cc21 [NORFLOXACIN]
Activity [14]: Inhibitor

C1CO1 [OXIRANE]
Activity [6]: Substrate

COc1ccnc(C[S+]([O-])c2nc3ccc(OC(F)F)cc3[nH]2)c1OC (centres undefined) [PANTOPRAZOLE]
Activity [13]: Substrate

Cc1ccc(C(=O)c2cc(O)c(O)c([N+](=O)[O-])c2)cc1 [TOLCAPONE]
Activity [4]: Substrate

CC(c1cc2ccccc2s1)N(O)C(N)=O (centres undefined) [ZILEUTON]
Activity [14]: Inhibitor
